Drawing on patent publication US11180474B2 (BRISTOL-MYERS SQUIBB COMPANY, priority 2016, dated 2021), this text covers IC50 for 17 compounds.

Each structure is given as a SMILES string.

One experiment concerns the target T1, human TLR9 (Homo sapiens, UniProt Q9NR96).
T1 construct: host or cells: HEK-Blue cells
T1 sequence (Q9NR96 26-1032): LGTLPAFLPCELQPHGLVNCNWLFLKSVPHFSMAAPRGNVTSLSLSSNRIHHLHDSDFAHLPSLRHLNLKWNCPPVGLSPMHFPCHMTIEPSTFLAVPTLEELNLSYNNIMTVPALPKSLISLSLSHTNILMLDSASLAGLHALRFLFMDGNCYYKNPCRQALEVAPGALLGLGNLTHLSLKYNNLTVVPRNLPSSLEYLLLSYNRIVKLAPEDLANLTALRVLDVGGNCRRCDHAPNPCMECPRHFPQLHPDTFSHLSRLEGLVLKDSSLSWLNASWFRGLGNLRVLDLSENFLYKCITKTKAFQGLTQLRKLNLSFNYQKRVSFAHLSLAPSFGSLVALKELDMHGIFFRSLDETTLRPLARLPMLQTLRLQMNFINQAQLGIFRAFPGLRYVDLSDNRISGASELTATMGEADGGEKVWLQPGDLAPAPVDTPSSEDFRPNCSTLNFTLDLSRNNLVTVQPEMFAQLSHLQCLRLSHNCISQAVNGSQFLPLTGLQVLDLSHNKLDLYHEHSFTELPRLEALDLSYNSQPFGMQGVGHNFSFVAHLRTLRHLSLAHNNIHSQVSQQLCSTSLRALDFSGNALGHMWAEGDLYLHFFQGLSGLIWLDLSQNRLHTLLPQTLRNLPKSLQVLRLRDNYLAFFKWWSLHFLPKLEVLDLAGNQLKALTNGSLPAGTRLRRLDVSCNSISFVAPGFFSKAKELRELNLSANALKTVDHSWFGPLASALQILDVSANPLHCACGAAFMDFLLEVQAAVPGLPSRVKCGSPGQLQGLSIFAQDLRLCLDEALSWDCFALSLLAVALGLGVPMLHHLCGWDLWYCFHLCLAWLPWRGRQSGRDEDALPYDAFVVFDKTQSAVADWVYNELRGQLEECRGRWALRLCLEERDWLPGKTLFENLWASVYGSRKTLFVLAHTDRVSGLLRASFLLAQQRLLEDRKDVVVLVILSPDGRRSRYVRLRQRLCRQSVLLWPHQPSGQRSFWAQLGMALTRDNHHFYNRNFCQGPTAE
The experiment is described as follows: TLR9 inhibition reporter assay (HEK-Blue cells, SEAP reporter, ODN2006 stimulation). It is filed as cell-based. Conditions: HEK-Blue cells overexpressing human TLR9, ODN2006 5 nM. In short, it runs like this:
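Human TLR7/8/9 HEK-Blue reporter lines; dose range 0.05 nM–50 μM; 30 min RT preincubation; stimulus gardiquimod 7.5 μM / R848 15.9 μM / ODN2006 5 nM respectively; 22 h, 37 °C; SEAP detected colorimetrically.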
On the technique in general: Reporter assays use an easily measured gene product as a stand-in for the process of interest.

The target in a further experiment is T2, human TLR7 (Homo sapiens, UniProt Q9NYK1).
T2 construct: host or cells: HEK-Blue cells
T2 sequence (Q9NYK1 27-1049): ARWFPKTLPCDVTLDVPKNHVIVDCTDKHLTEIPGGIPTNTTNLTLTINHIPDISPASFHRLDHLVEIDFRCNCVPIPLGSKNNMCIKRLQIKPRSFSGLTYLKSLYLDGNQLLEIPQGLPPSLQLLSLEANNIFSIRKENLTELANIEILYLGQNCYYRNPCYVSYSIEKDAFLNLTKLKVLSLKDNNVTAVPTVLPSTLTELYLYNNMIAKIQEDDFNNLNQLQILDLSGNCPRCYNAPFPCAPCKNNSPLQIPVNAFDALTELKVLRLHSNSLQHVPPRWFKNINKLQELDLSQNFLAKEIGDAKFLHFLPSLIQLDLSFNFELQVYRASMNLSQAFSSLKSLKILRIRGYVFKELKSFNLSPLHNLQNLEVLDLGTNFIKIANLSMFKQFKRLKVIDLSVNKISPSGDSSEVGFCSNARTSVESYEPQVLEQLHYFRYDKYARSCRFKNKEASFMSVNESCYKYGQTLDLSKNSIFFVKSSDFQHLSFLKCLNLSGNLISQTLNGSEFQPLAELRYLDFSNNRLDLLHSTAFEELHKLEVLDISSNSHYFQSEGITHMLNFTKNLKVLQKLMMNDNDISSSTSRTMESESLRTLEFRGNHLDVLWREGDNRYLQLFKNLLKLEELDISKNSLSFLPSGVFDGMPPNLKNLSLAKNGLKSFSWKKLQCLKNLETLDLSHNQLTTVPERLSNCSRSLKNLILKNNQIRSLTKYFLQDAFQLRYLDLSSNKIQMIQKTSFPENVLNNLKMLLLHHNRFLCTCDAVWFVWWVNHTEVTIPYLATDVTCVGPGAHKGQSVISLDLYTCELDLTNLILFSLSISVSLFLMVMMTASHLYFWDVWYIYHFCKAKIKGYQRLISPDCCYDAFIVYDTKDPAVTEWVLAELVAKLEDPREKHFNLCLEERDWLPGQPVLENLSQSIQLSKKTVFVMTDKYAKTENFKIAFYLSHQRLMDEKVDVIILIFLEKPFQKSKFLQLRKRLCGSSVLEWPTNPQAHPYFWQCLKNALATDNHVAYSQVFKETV
As to the kind of experiment: TLR7 inhibition reporter assay (HEK-Blue cells, SEAP reporter, gardiquimod stimulation). It is filed as cell-based. Conditions: HEK-Blue cells overexpressing human TLR7, gardiquimod 7.5 μM. In short, it runs like this:
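Cells (15000/well for TLR7, 20,000 for TLR8) were treated with compounds over 0.05 nM-50 μM final. After 22 h at 37° C, 5% CO2, SEAP was measured with HEK-Blue Detection reagent; percent inhibition was taken as reduction of agonist-plus-DMSO signal relative to a known inhibitor.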

Turning to `COc1ccc(-c2[nH]c3ccc(C4CCN(C(=O)NCc5ccco5)CC4)cc3c2CC(F)(F)F)cc1OC` [Example 358, 4-(2-(3,4-dimethoxyphenyl)-3-(2,2,2-trifluoroethyl)-1H-indol-5-yl)-N-(furan-2-ylmethyl)piperidine-1-carboxamide], the IC50 at human TLR9 and at human TLR7 was at least 50000 nM in each case.

As to `COc1ccc(-c2[nH]c3ccc(C4CCNCC4F)cc3c2C(C)C)cc1OC` (racemic) [Example 320, 2-(3,4-dimethoxyphenyl)-5-(3-fluoropiperidin-4-yl)-3-isopropyl-1H-indole], the values for the IC50 at human TLR9 and on human TLR7 were 5020 nM and 71 nM, respectively.

On to `COc1ccc(-c2[nH]c3ccc(C4CCN(C(=O)C5CCN(C(C)=O)CC5)CC4)cc3c2CC(F)(F)F)cc1OC` [Example 345, 1-(4-(4-(2-(3,4-dimethoxyphenyl)-3-(2,2,2-trifluoroethyl)-1H-indol-5-yl)piperidine-1-carbonyl)piperidin-1-yl)ethan-1-one], for which the 50% inhibitory concentration (IC50) – broadly, the concentration at which inhibition is half-maximal – against human TLR9 is 25200 nM; on human TLR7, 256 nM.

With `COc1ccc(-c2[nH]c3ccc(C4CCN(CC(=O)NCCN(C)C)CC4)cc3c2CC(F)(F)F)cc1OC` [Example 380, 2-(4-(2-(3,4-dimethoxyphenyl)-3-(2,2,2-trifluoroethyl)-1H-indol-5-yl)piperidin-1-yl)-N-(2-(dimethylamino)ethyl)acetamide], the IC50 against human TLR9 is 745 nM; against human TLR7, 33 nM.

Turning to `COc1ccc(-c2[nH]c3ccc(C4CCN(CC(=O)N5CCN(c6ncccn6)CC5)CC4)cc3c2CC(F)(F)F)cc1OC` [Example 368, 2-(4-(2-(3,4-dimethoxyphenyl)-3-(2,2,2-trifluoroethyl)-1H-indol-5-yl)piperidin-1-yl)-1-(4-(pyrimidin-2-yl)piperazin-1-yl)ethan-1-one], the IC50 on human TLR9 came to 1330 nM; against human TLR7, 159 nM.

Take `COc1ccc(-c2[nH]c3ccc(C4CCN(C(=O)CCn5ccc6ccccc65)CC4)cc3c2CC(F)(F)F)cc1OC` [Example 337, 1-(4-(2-(3,4-dimethoxyphenyl)-3-(2,2,2-trifluoroethyl)-1H-indol-5-yl)piperidin-1-yl)-3-(1H-indol-1-yl)propan-1-one]: the IC50 was at least 50000 nM at human TLR9 and 3570 nM on human TLR7.

For the compound `COc1ccc(-c2[nH]c3ccc(C4CCN(C(=O)CCCn5ccnc5)CC4)cc3c2CC(F)(F)F)cc1OC` [Example 331, 1-(4-(2-(3,4-dimethoxyphenyl)-3-(2,2,2-trifluoroethyl)-1H-indol-5-yl)piperidin-1-yl)-4-(1H-imidazol-1-yl)butan-1-one], the figures for the IC50 on human TLR9 and against human TLR7 were 5230 nM and 33 nM, respectively.

Turning to `COc1ccc(-c2[nH]c3ccc(C4CCN(C(=O)NCCc5ccccc5)CC4)cc3c2CC(F)(F)F)cc1OC` [Example 357, 4-(2-(3,4-dimethoxyphenyl)-3-(2,2,2-trifluoroethyl)-1H-indol-5-yl)-N-phenethylpiperidine-1-carboxamide], the IC50 at human TLR9 is at least 50000 nM; at human TLR7, 690 nM.

In the case of `COc1ccc(-c2[nH]c3ccc(C4CCN(C(=O)CN(C)C)CC4)cc3c2C)cc1OC` [Example 402, 1-(4-(2-(3,4-dimethoxyphenyl)-3-methyl-1H-indol-5-yl)piperidin-1-yl)-2-(dimethylamino)ethan-1-one], the IC50 came out at 5820 nM on human TLR9 and 544 nM at human TLR7.

On to `COc1ccc(-c2[nH]c3ccc(C4CCN(CC(=O)N5CCN(C(C)=O)CC5)CC4)cc3c2CC(F)(F)F)cc1OC` [Example 361, 1-(4-acetylpiperazin-1-yl)-2-(4-(2-(3,4-dimethoxyphenyl)-3-(2,2,2-trifluoroethyl)-1H-indol-5-yl)piperidin-1-yl)ethan-1-one], for which the half-maximal inhibitory concentration (IC50) at human TLR9 stood at 2420 nM; on human TLR7 it was 100 nM.

As for `CCN(CC)C(=O)C1CCCN(CC(=O)N2CCC(c3ccc4[nH]c(-c5ccc(OC)c(OC)c5)c(C5CCOCC5)c4c3)CC2)C1` (stereo not shown) [Example 392, 1-(2-(4-(2-(3,4-dimethoxyphenyl)-3-(tetrahydro-2H-pyran-4-yl)-1H-indol-5-yl)piperidin-1-yl)-2-oxoethyl)-N,N-diethylpiperidine-3-carboxamide], the figures for the IC50 on human TLR9 and on human TLR7 were 1800 nM and 681 nM, respectively.

With `COc1ccc(-c2[nH]c3ccc(C4CCN(C(=O)CCCNC(C)=O)CC4)cc3c2CC(F)(F)F)cc1OC` [Example 343, N-(4-(4-(2-(3,4-dimethoxyphenyl)-3-(2,2,2-trifluoroethyl)-1H-indol-5-yl)piperidin-1-yl)-4-oxobutyl)acetamide], the IC50 against human TLR9 came out at 40800 nM; on human TLR7, 174 nM.

With `COc1ccc(-c2[nH]c3ccc(C4CCN(C(=O)CN[C@H](C)C(C)C)CC4)cc3c2C2CCOCC2)cc1OC` [Example 394, (R)-1-(4-(2-(3,4-dimethoxyphenyl)-3-(tetrahydro-2H-pyran-4-yl)-1H-indol-5-yl)piperidin-1-yl)-2-((3-methylbutan-2-yl)amino)ethan-1-one], the IC50 against human TLR9 came to 2760 nM; on human TLR7, 1390 nM.

As to `COc1ccc(-c2[nH]c3ccc(C4CCNCC4F)cc3c2C(C)C)cc1OC` (single isomer, unassigned) [Example 321, 2-(3,4-dimethoxyphenyl)-5-(3-fluoropiperidin-4-yl)-3-isopropyl-1H-indole], the figures for the IC50 at human TLR9 and at human TLR7 were 4500 nM and 22 nM, respectively.

For `COc1ccc(-c2[nH]c3ccc(C4CCN(CC(=O)NCCCN5CCCC5=O)CC4)cc3c2CC(F)(F)F)cc1OC` [Example 376, 2-(4-(2-(3,4-dimethoxyphenyl)-3-(2,2,2-trifluoroethyl)-1H-indol-5-yl)piperidin-1-yl)-N-(3-(2-oxopyrrolidin-1-yl)propyl)acetamide], the IC50 at human TLR9 turned out to be 2900 nM; at human TLR7, 178 nM.

As to `CCN(CCN(C)C)C(=O)CN1CCC(c2ccc3[nH]c(-c4ccc(OC)c(OC)c4)c(CC(F)(F)F)c3c2)CC1` [Example 372, 2-(4-(2-(3,4-dimethoxyphenyl)-3-(2,2,2-trifluoroethyl)-1H-indol-5-yl)piperidin-1-yl)-N-(2-(dimethylamino)ethyl)-N-ethylacetamide], the figures for the IC50 against human TLR9 and on human TLR7 were 335 nM and 13 nM, respectively.

For the compound `COc1ccc(-c2[nH]c3ccc(C4CCNC(=O)C4)cc3c2C(C)C)cc1OC` (stereo not shown) [Example 326, 4-(2-(3,4-dimethoxyphenyl)-3-isopropyl-1H-indol-5-yl)piperidin-2-one], the results for the IC50 at human TLR9 and on human TLR7 were at least 50000 nM and 127 nM, respectively.
